According to ChEMBL document CHEMBL5465560, “Selectivity Literature for EUbOPEN Chemogenomic Library” (2024):

Columns and labels:
Adenosine receptor A2a = Adenosine receptor A2a (Homo sapiens, UniProt P29274); experiment: Selectivity interaction (Safety Panel 44tm (Eurofins)) EUB0000162b ADORA2A; details: at 10 µM
[1] = biological target: Tyrosine-protein kinase SYK (Homo sapiens, UniProt P43405); experiment: Selectivity interaction (KinomeScan (DiscoverX)) EUB0000229b SYK; details: at 10 µM
[2] = biological target: T1, Serine/threonine-protein kinase Nek3 (Homo sapiens) (UniProt P51956); experiment: Selectivity interaction (KinomeScan (DiscoverX)) EUB0000229b NEK3; details: at 10 µM
T1 sequence (whole entry): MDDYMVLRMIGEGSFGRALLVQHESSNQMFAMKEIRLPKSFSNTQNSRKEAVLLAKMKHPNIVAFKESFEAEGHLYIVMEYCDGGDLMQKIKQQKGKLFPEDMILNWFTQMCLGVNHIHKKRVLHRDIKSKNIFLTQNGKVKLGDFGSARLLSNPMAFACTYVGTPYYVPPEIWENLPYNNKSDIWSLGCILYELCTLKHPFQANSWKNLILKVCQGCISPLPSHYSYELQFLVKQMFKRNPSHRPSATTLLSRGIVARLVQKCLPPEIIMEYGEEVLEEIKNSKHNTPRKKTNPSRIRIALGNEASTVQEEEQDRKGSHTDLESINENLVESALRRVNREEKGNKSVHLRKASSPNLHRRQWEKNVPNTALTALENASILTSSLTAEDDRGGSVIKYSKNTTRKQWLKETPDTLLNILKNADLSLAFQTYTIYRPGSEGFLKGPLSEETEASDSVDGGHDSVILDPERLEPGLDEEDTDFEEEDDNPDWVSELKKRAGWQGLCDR

[3] = biological target: Serine/threonine-protein kinase WNK1 (Homo sapiens) (UniProt Q9H4A3); experiment: Selectivity interaction (Kinase panel (DSF assay)) EUB0001559a WNK1
[4] = biological target: Tyrosine-protein kinase JAK2 (Homo sapiens, UniProt O60674); experiment: Selectivity interaction (Kinase panel (Invitrogen)) EUB0000639a JAK2; details: at 200 nM
[5] = biological target: Protein arginine N-methyltransferase 1 (Homo sapiens, UniProt Q99873); experiment: Selectivity interaction (Methyltransferase screen (Scintillation proximity assays)) EUB0000255b PRMT1
[6] = biological target: T2, Mitogen-activated protein kinase kinase kinase kinase 3 (Homo sapiens) (UniProt Q8IVH8); experiment: Selectivity interaction (KinomeScan (DiscoverX)) EUB0000618a MAP4K3; details: at 10 µM
T2 sequence (whole entry): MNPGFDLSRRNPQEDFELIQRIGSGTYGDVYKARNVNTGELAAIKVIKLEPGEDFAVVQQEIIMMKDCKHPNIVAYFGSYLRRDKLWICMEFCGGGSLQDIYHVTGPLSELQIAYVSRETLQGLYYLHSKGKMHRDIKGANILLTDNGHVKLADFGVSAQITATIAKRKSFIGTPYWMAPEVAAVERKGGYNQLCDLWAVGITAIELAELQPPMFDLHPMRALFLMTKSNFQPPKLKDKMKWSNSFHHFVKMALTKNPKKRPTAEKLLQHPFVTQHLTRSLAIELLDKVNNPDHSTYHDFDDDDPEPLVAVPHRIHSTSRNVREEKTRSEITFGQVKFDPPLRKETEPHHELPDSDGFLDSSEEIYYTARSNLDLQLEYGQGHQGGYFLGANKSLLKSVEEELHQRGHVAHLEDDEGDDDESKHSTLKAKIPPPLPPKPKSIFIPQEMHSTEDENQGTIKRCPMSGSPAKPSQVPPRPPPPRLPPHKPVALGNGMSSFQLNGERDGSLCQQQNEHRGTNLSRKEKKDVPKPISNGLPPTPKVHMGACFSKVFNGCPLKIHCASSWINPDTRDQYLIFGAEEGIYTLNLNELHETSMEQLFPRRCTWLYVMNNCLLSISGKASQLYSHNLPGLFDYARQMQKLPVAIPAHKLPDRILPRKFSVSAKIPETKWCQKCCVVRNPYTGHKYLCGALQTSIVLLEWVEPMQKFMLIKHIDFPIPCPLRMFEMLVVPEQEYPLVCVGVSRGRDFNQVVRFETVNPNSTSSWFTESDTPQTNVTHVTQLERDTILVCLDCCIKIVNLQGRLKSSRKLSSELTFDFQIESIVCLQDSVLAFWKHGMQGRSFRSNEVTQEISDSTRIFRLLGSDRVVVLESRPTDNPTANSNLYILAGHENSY

[7] = biological target: T3, 3-phosphoinositide-dependent protein kinase 1 (Homo sapiens) (UniProt O15530); experiment: Selectivity interaction (KinomeScan (DiscoverX)) EUB0000618a PDPK1; details: at 10 µM
T3 sequence (whole entry): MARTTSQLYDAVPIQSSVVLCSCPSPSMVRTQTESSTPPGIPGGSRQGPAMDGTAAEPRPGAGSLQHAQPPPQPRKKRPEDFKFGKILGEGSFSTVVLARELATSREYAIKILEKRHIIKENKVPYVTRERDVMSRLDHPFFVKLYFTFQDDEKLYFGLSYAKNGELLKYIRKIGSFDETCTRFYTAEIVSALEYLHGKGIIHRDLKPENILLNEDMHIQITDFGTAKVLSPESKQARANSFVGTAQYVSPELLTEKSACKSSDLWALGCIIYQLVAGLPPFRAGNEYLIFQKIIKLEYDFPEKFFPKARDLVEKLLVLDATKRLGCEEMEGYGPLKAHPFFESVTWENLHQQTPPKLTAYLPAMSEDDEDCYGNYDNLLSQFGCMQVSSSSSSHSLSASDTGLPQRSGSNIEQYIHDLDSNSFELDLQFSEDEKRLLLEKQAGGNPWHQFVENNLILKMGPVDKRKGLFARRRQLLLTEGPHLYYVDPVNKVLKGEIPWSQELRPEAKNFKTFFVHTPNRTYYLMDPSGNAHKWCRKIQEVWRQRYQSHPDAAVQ

[8] = biological target: Serine/threonine-protein kinase WNK3 (Homo sapiens) (UniProt Q9BYP7); experiment: Selectivity interaction (KinomeScan (DiscoverX)) EUB0000607a WNK3; details: at 10 µM
[9] = biological target: Serine/threonine-protein kinase 16 (Homo sapiens, UniProt O75716); experiment: Selectivity interaction (KinomeScan (DiscoverX)) EUB0000607a STK16; details: at 10 µM

Chain of Protein arginine N-methyltransferase 1 (Q99873 whole entry, looked up): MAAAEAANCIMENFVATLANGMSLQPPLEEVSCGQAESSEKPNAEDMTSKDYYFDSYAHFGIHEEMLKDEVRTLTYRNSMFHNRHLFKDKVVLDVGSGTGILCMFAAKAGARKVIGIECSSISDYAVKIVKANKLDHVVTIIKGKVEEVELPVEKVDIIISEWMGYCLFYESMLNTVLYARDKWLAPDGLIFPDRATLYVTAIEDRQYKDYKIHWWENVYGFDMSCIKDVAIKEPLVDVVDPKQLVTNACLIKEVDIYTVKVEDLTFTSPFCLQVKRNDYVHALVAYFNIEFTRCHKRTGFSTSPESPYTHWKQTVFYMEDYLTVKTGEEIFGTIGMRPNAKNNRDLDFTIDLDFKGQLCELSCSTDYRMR
Chain of Serine/threonine-protein kinase WNK3 (Homo sapiens) (Q9BYP7 whole entry): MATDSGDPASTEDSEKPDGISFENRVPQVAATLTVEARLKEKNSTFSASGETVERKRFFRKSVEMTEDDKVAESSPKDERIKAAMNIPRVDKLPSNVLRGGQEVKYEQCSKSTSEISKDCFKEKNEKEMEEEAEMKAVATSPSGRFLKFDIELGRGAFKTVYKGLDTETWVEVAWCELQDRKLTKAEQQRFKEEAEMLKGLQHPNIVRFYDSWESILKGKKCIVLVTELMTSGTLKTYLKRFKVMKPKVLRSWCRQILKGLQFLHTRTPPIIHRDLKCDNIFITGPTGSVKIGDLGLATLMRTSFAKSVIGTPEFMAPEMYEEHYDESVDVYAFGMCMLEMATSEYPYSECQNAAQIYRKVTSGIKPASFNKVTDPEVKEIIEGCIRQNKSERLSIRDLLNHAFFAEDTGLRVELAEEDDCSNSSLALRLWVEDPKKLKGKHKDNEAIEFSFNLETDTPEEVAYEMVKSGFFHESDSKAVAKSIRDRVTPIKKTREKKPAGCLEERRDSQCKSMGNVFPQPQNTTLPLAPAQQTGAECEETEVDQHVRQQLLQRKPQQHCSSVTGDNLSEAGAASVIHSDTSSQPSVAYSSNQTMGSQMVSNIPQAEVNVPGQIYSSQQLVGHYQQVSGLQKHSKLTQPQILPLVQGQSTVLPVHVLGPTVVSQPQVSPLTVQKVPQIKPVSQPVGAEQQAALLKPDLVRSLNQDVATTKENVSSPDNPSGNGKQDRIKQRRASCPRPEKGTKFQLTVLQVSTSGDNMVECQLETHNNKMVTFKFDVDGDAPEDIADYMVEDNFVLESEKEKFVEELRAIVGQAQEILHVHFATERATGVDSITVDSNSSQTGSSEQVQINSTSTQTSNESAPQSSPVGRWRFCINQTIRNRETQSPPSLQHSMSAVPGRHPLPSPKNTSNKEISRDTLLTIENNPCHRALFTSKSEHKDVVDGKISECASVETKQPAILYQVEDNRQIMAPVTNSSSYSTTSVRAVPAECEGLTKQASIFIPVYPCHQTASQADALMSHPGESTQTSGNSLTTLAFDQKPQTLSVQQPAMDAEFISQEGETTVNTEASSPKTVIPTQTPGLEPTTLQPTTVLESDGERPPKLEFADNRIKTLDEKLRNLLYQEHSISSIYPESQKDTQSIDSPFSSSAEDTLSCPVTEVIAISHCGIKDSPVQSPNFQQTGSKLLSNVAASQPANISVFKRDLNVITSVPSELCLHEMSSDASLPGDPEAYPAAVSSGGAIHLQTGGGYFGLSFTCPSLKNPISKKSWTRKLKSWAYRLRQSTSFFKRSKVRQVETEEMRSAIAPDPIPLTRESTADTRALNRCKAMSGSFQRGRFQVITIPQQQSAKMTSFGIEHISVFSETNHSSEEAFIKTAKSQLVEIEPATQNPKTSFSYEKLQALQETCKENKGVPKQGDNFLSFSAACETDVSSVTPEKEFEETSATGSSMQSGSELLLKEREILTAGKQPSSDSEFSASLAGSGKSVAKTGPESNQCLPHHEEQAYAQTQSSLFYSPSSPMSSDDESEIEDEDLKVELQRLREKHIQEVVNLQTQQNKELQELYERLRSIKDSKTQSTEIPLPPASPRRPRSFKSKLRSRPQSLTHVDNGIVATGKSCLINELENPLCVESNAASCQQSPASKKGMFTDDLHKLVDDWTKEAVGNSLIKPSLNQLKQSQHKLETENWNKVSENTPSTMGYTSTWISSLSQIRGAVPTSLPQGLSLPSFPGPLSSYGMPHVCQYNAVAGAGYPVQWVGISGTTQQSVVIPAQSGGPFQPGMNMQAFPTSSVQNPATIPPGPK
Chain of Adenosine receptor A2a (P29274 whole entry): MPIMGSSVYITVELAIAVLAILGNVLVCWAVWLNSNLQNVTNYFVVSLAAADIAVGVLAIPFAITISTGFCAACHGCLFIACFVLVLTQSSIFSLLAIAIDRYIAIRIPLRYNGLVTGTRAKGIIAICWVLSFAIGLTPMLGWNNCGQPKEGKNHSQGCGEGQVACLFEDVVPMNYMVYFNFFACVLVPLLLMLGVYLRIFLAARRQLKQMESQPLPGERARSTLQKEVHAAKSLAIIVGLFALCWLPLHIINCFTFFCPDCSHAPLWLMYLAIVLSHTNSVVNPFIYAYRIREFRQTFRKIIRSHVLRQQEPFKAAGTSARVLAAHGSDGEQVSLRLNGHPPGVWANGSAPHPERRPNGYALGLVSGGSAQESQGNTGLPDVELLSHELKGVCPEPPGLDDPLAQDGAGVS
Chain of Serine/threonine-protein kinase WNK1 (Homo sapiens) (Q9H4A3 whole entry, looked up): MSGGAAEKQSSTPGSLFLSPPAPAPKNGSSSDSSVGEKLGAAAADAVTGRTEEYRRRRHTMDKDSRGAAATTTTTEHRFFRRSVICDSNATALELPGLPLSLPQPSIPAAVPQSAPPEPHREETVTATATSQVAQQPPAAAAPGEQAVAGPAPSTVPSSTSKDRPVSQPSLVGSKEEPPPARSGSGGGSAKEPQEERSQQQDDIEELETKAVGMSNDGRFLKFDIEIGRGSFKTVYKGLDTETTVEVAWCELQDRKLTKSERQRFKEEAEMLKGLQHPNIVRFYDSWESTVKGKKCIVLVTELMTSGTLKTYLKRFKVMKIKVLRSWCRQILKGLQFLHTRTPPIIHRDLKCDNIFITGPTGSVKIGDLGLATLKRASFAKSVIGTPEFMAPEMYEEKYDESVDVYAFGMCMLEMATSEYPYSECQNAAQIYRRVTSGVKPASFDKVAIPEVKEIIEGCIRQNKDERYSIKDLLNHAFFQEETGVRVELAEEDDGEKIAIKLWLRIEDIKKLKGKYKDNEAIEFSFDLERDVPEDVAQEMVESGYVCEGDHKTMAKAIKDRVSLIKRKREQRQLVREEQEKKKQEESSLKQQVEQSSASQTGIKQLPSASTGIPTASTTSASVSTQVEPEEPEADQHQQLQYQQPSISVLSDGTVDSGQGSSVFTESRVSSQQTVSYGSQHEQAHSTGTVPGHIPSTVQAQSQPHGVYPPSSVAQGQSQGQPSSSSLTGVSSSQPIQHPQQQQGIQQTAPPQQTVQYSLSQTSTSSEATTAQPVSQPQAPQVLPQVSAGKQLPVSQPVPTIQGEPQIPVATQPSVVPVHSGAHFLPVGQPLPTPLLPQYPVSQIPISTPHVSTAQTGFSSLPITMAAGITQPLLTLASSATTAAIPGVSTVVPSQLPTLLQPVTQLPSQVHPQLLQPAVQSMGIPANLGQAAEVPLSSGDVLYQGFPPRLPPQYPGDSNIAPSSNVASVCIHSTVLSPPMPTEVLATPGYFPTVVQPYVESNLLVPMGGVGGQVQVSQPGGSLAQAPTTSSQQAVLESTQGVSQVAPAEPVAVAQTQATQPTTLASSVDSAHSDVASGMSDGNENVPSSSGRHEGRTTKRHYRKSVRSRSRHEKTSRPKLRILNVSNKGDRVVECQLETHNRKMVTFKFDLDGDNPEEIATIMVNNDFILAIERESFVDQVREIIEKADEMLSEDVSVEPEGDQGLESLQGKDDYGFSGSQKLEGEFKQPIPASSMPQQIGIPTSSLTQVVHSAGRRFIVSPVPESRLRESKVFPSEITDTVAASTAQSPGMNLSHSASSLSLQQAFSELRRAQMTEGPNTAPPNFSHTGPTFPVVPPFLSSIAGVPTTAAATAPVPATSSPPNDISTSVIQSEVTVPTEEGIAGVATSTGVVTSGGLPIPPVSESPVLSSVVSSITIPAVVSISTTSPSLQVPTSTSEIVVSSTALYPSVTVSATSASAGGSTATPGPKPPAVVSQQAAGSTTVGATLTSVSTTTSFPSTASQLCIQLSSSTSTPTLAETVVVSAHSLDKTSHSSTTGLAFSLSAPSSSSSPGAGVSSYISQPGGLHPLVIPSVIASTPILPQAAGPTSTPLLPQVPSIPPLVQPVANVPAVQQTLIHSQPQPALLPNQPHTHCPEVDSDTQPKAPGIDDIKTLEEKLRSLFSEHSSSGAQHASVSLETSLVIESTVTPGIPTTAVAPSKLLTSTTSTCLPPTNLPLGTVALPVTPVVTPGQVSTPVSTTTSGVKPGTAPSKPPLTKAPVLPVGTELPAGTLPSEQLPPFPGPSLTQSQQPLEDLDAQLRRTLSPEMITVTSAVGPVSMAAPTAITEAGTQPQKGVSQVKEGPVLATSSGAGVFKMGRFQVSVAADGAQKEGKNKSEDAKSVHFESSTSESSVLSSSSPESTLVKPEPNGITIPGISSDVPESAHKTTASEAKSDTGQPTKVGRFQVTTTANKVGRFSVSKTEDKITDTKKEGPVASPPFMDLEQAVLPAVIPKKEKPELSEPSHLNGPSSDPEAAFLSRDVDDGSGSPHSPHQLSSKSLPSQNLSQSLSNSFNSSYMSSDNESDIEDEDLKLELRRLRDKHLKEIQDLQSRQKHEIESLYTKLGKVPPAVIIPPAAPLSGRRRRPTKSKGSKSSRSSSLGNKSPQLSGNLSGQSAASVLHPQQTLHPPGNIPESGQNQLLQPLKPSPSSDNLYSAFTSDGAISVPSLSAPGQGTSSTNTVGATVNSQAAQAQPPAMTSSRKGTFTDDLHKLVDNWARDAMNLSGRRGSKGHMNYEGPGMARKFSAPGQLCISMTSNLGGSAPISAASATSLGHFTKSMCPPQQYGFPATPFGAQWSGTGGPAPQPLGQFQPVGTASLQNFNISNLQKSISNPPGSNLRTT

CN(C)C(=O)Cn1cc(-c2ccc(-c3cncc4ccccc34)cc2)cn1
% of control (Adenosine receptor A2a): 85%

COc1cc(N(C)c2ccnc3ccc(C(F)(F)F)cc23)cc(OC)c1OC
% binding [1]: 94%
% binding [2]: 80%

CN(C(=O)c1cnn2cccnc12)c1cc2c(cc1N1CCOCC1)C(=O)N(C[C@@H](F)C(C)(C)O)C2
dTM [3]: -0.6 K

CC[C@@H]1[C@H](F)C(=O)N[C@@H]1COc1nccc2cc(C(N)=O)c(OC)cc12 [ZIMLOVISERTIB]
% of inhibition [4]: 12.5%

COCCN1CCC(c2cc(CN(C)C(=O)c3cccc(Oc4ccccc4)c3)ccn2)CC1
% activity ([5]; at 1 µM): 82%
% activity ([5]; at 10 µM): > 90%

O[C@H]1CC[C@H](Nc2ncc3nc(Nc4c(F)cc(F)cc4F)n([C@H]4CCOC4)c3n2)CC1
% of control [6]: 85%
% of control [7]: 100%

CNC(=O)Nc1ccc(-c2nc(N3CC4CCC(C3)O4)c3cnn(C4CCC5(CC4)OCCO5)c3n2)cc1
% of control [8]: 100%
% of control [9]: 98%
